# Experimental data from patent US9340577B2, “HLA binding motifs and peptides and their uses” (priority 1992, dated 2016).
# pIC50: −log10 of the molar value. No end group written: not given here.
# Assays:
# Assay in all cases: biochemical
# Assay type in all cases: binding
# A*0203 = A*0203 (Homo sapiens, UniProt P04439, A173T/D140Y/D185E/D98H/E277Q/G131W/G231S/I119V/I121R/I166T/I218V/L180W/L300P/L318F/N151K/N90K/P208A/P217A/Q86G/Q94H/R138H/R169H/T345S)
# HLA-A*0201 (HLA-A2.1) = HLA-A*0201 (HLA-A2.1) (Homo sapiens, UniProt P04439, D140Y/D185E/D98H/E176V/E277Q/G131W/G231S/I119V/I121R/I166T/I218V/L300P/L318F/N151K/N90K/P208A/P217A/Q86G/Q94H/R138H/R169H/T345S)
# A*0202 = A*0202 (Homo sapiens, UniProt P04439, D140Y/D185E/D98H/E176V/E277Q/G131W/G231S/I119L/I121R/I166T/I218V/L180W/L300P/L318F/N151K/N90K/P208A/P217A/Q67R/Q86G/Q94H/R138H/R169H/T345S)
# A*0206 = A*0206 (Homo sapiens, UniProt P04439, D140Y/D185E/D98H/E176V/E277Q/F33Y/G131W/G231S/I119V/I121R/I166T/I218V/L300P/L318F/N151K/N90K/P208A/P217A/Q86G/Q94H/R138H/R169H/T345S)
# A*6802 = A*6802 (Homo sapiens, UniProt P04439, A269V/D140Y/D185E/E176V/E277Q/E87N/F33Y/G231S/I121R/I166T/I218V/L180W/L300P/L318F/N151K/P208A/P217A/Q86R/R138H/R169H/S129P/T345S/V36M)
Molecule,pIC50 (A*0203),pIC50 (HLA-A*0201 (HLA-A2.1)),pIC50 (A*0202),pIC50 (A*0206),pIC50 (A*6802)
CC(C)[C@H](NC(=O)[C@@H](NC(=O)[C@H](CC(N)=O)NC(=O)[C@H](CCC(N)=O)NC(=O)[C@H](C)NC(=O)[C@H](CCC(=O)O)NC(=O)[C@@H]1CCCN1C(=O)[C@H](CCC(=O)O)NC(=O)[C@H](CS)NC(=O)[C@@H](NC(=O)[C@@H](N)Cc1ccccc1)[C@@H](C)O)[C@@H](C)O)C(=O)O [Peptide 9013.0323],7.07,6.47,7.54,6.04,–
CC[C@H](C)[C@H](NC(=O)CN)C(=O)N[C@@H](CCSC)C(=O)N[C@H](C(=O)NCC(=O)N[C@H](C(=O)N[C@@H](CC(C)C)C(=O)N[C@H](C(=O)NCC(=O)N[C@H](C(=O)N[C@H](C(=O)O)C(C)C)C(C)C)C(C)C)C(C)C)[C@@H](C)CC [Peptide 9013.0344],7.09,6.25,–,6.04,–
AIFGVNPTV [Peptide 1578.25],7.04,6.69,7.68,7.02,–
ALYSWLIDGNI [Peptide 9013.0315],8.15,7.60,8.44,7.04,–
AQYSWFVNGV [Peptide 9013.0172],8.62,–,8.92,7.89,4.92
AQYSWLIDGNV [Peptide 9013.0314],7.32,–,7.21,7.15,4.81
ELLLLVHNL [Peptide 9013.0022],< 4.70,–,5.73,5.14,–
FLGALKSFL [Peptide 1578.11],8.68,6.14,9.52,5.76,–
FLQGCIISYA [Peptide 1578.18],8.05,7.03,8.59,6.62,–
FQQSTQELFV [Peptide 9013.0178],7.34,–,7.68,7.22,< 4.70
GLLVGVALI [Peptide 9013.0111],7.89,6.80,7.05,6.69,–
GLSLPVSPRL [Peptide 9013.0220],5.41,–,6.65,< 4.70,< 4.70
GMGCTGWFEV [Peptide 1578.19],7.21,–,7.43,5.84,5.88
GTFQQSTQEV [Peptide 9013.0175],6.37,< 4.70,6.80,5.69,–
GVLVGVALV [Peptide 9013.0110],6.33,6.02,5.22,7.25,–
ILIGVLVGVAL [Peptide 9013.0347],6.00,5.82,–,6.92,< 4.70
ILNIIQNDT [Peptide 9013.0033],5.10,< 4.70,–,< 4.70,< 4.70
ILNTTYLWWV [Peptide 9013.0195],7.66,–,6.92,6.11,4.80
ITVNNSGSYV [Peptide 9013.0187],6.59,< 4.70,6.48,5.99,–
KLLEKLLCI [Peptide 1578.15],7.82,–,–,7.29,< 4.70

Molecule,pIC50 (A*0203),pIC50 (HLA-A*0201 (HLA-A2.1)),pIC50 (A*0202),pIC50 (A*0206),pIC50 (A*6802)
KVTIESTPFNV [Peptide 9013.0265],7.40,5.59,–,7.03,5.81
LIQPYSIYA [Peptide 86.0202],5.68,5.85,–,6.37,5.48
LLIESTPFNV [Peptide 9013.0128],8.09,7.80,8.40,7.21,–
LLLVHNLPQHV [Peptide 9013.0275],6.19,5.32,–,5.29,< 4.70
LQGAIISFV [Peptide 1578.28],7.96,7.38,8.18,7.70,–
LTFWNPPTV [Peptide 9013.0006],8.64,8.47,7.77,8.28,–
NLLYGPDDPTI [Peptide 9013.0310],5.06,5.01,–,< 4.70,< 4.70
NLTVNNSGSYT [Peptide 9013.0303],< 4.70,< 4.70,< 4.70,< 4.70,–
NVAEGKEVLV [Peptide 9013.0133],4.71,< 4.70,5.94,< 4.70,–
QLSNGNRTV [Peptide 9013.0095],7.27,4.82,–,< 4.70,< 4.70
RLQLSNGNRV [Peptide 9013.0224],6.17,4.76,–,< 4.70,< 4.70
RTLQQLLFA [Peptide 1525.18],6.40,6.02,–,7.74,< 4.70
RVLQQLLFI [Peptide 1545.01],7.62,7.57,–,8.07,4.98
SLLTFWNPPV [Peptide 9013.0118],6.80,6.68,7.12,–,7.62
SLMKFLQGSV [Peptide 1578.04],8.34,6.36,7.51,5.84,–
SLPVSPRLQV [Peptide 9013.0222],6.81,5.14,–,< 4.70,< 4.70
TIESTPFNVV [Peptide 9013.0130],6.17,4.81,–,5.49,6.52
TLDATYLWWV [Peptide 9013.0158],6.33,7.21,6.86,6.81,–
TLELFIPNI [Peptide 9013.0060],6.40,7.54,–,7.08,–
TLESTPFNV [Peptide 9013.0012],6.66,6.67,7.72,–,6.62

Molecule,pIC50 (A*0203),pIC50 (HLA-A*0201 (HLA-A2.1)),pIC50 (A*0202),pIC50 (A*0206),pIC50 (A*6802)
TLGIMIGVL [Peptide 9013.0108],5.77,5.13,–,5.04,< 4.70
TLVLFIAKI [Peptide 9013.0106],7.68,4.78,–,7.54,4.89
TLVTTITVYA [Peptide 9013.0193],7.24,6.11,7.96,5.76,–
TLYAHIQCL [Peptide 1578.26],8.03,6.57,8.31,6.38,–
TQELFIPNV [Peptide 9013.0059],5.48,6.51,–,7.26,5.31
TQVLFIAKV [Peptide 9013.0105],7.57,5.98,–,7.34,–
TTVTTITVYV [Peptide 9013.0192],6.49,5.98,7.68,–,7.77
TVELFIPNITV [Peptide 9013.0300],< 4.70,5.09,–,5.78,6.71
TVESTPFNV [Peptide 9013.0013],5.21,4.76,5.72,5.62,–
VLAEAMSAA [Peptide 1516.11],9.06,7.62,–,8.00,6.32
VLAEAMSKA [Peptide 1539.07],8.12,7.16,8.47,–,5.34
VLFTCEPET [Peptide 9013.0045],6.30,5.59,–,< 4.70,< 4.70
VLYGPDAPV [Peptide 9013.0052],7.72,7.32,8.62,–,5.49
VQWAYDHDI [Peptide 86.0205],< 4.70,5.16,5.17,–,< 4.70
WLRLLLTASL [Peptide 9013.0116],7.49,5.05,–,4.76,4.70
WLRLLLTASLL [Peptide 9013.0254],7.92,5.46,–,4.93,< 4.70
WQRLLLTASV [Peptide 9013.0115],7.44,5.29,–,5.65,< 4.70
YTLHVIKSDV [Peptide 9013.0151],6.01,5.36,–,7.27,7.80
YVCGIQNSVSV [Peptide 9013.0337],6.80,–,–,7.24,–
